From US11485701B2, “Insect repellent compounds and compositions, and methods thereof” (Iowa State University Research Foundation, Inc., priority 2016, dated 2022)
Like-named read-outs stand apart in the source and are kept apart here.

System: Northern house mosquitoes (Culex pipiens)
Test: Long-term spatial repellency, static air repellency chamber, filter papers air-dried 5 hours
Assay type: in vivo
Settings: Culex pipiens, 1 mL of 0.5% solution in acetone, air-dried 5 hours
In short: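 Adult female Culex pipiens, 5–7 days post-emergence, held at 27 °C, 80% RH and 16:8 light:dark, about 20 per replicate in a 9 × 60 cm glass static-air chamber. Filter paper treated with 0.5% compound in acetone and air-dried 5 h is placed at one end; acetone-only papers are the control. Percentage spatial repellency is scored from mosquito distribution at 15–150 min, 4 replicates.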

CC(C)=CCCC(C)CC(=O)OCC(C)O (stereo not drawn) [Compound 2144, 2-hydroxypropyl citronellate]
pest or weed control at 0.5 % (0.25 h, 15 min, read-out: Long-term Percentage repellency 15 min): 12.5%
pest or weed control at 0.5 % (1.5 h, 90 min, read-out: Long-term Percentage repellency 90 min): 20%
pest or weed control at 0.5 % (2.5 h, 150 min, read-out: Long-term Percentage repellency 150 min): 35%
